The values that follow come from patent US10633419B2, “Immunomodulators” (BRISTOL-MYERS SQUIBB COMPANY, priority 2014, dated 2020).

As usually defined, the pIC50 is −log10 of the IC50, conventionally taken in molar units.

pIC50: −log10 of the molar value. Positions of bridges follow the written chain, without caps; N, C: chain ends. Non-standard residues stand in square brackets, D forms with d. Residues, ends and D or L forms follow the SMILES beside them. Trp(1-CH2COOH) = N[C@@H](Cc1cn(CC(=O)O)c2ccccc12)C(=O)O; Bta = N[C@@H](Cc1csc2ccccc12)C(=O)O; Aha = [N-]=[N+]=NCC[C@H](N)C(=O)O; Hyp = O=C(O)[C@@H]1C[C@@H](O)CN1; NMeNle = CCCC[C@H](NC)C(=O)O; NMeA = CN[C@@H](C)C(=O)O; Pra = C#CC[C@H](N)C(=O)O; Dab = NCC[C@H](N)C(=O)O; Dap = NC[C@H](N)C(=O)O

In this experiment the target is T1, PD-L1 (Homo sapiens, UniProt Q9NZQ7).
T1 construct: hPDL1(19-239)-TVMV-His; made in house; host or cells: HEK293T
T1 sequence (Q9NZQ7 with tags, fused parts or gaps): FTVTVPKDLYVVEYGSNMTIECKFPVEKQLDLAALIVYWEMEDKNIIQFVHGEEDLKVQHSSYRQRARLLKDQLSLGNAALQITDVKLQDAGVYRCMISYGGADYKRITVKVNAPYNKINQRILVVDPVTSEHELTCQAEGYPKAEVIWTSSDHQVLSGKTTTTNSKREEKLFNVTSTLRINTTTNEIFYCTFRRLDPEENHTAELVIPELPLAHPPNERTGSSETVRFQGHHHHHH
Put plainly: PD-1/PD-L1 Homogenous Time-Resolved Fluorescence (HTRF) binding assay (PD-1-Ig/PD-L1-His). The following applies: inhibition of PD-1-Ig binding to PD-L1-TVMV-His; value given as range class; read-out: HTRF IC50. In outline:
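HTRF competition in dPBS with 0.1% BSA and 0.05% Tween-20: 20 nM PD-1-Ig added after 15 min compound pre-incubation with 10 nM PD-L1-His, then another 15 min. Signal (665/620 nm) after 30 min with APC anti-His (20 nM) and Eu anti-Ig (1 nM).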
In general terms: TR-FRET usually uses a lanthanide donor and a delayed reading to cut background.
Consider `C#CC[C@H](NC(=O)CNC(=O)[C@@H]1CSCC(=O)N[C@@H](Cc2ccc(O)cc2)C(=O)N(C)[C@@H](C)C(=O)N[C@@H](CC(N)=O)C(=O)N2CCC[C@H]2C(=O)N[C@@H](CN)C(=O)N[C@@H](CC(C)C)C(=O)N2C[C@H](O)C[C@H]2C(=O)N[C@@H](Cc2c[nH]c3ccccc23)C(=O)N[C@@H](CO)C(=O)N[C@@H](Cc2csc3ccccc23)C(=O)N(C)[C@@H](CCCC)C(=O)N(C)[C@@H](CCCC)C(=O)N[C@@H](CCCNC(=N)N)C(=O)N1)C(N)=O` [INT 1300A] ({CH2CO}-Y[NMeA]NP[Dap]L[Hyp]WS[Bta][NMeNle][NMeNle]RCG[Pra]-NH2; thioether N-14), for which the pIC50 was 8.00 to 9.52. As to `CCCC[C@H]1C(=O)N(C)[C@@H](CCCC)C(=O)N[C@@H](CCCNC(=N)N)C(=O)N[C@H](C(=O)NCC(=O)N[C@@H](CCN=[N+]=[N-])C(N)=O)CSCC(=O)N[C@@H](Cc2ccc(O)cc2)C(=O)N(C)[C@@H](C)C(=O)N[C@@H](CC(N)=O)C(=O)N2CCC[C@H]2C(=O)N[C@@H](CN)C(=O)N[C@@H](CC(C)C)C(=O)N2C[C@H](O)C[C@H]2C(=O)N[C@@H](Cc2c[nH]c3ccccc23)C(=O)N[C@@H](CO)C(=O)N[C@@H](Cc2csc3ccccc23)C(=O)N1C` [INT 1300B] ({CH2CO}-Y[NMeA]NP[Dap]L[Hyp]WS[Bta][NMeNle][NMeNle]RCG[Aha]-NH2; thioether N-14), the pIC50 was 8.00 to 9.52. In the case of `CCCC[C@H]1C(=O)N(C)[C@@H](CCCC)C(=O)N[C@@H](CCCNC(=N)N)C(=O)N[C@H](C(=O)NCC(=O)NCC(=O)N[C@@H](CCN=[N+]=[N-])C(N)=O)CSCC(=O)N[C@@H](Cc2ccc(O)cc2)C(=O)N(C)[C@@H](C)C(=O)N[C@@H](CC(N)=O)C(=O)N2CCC[C@H]2C(=O)N[C@@H](CN)C(=O)N[C@@H](CC(C)C)C(=O)N2C[C@H](O)C[C@H]2C(=O)N[C@@H](Cc2c[nH]c3ccccc23)C(=O)N[C@@H](CO)C(=O)N[C@@H](Cc2csc3ccccc23)C(=O)N1C` [INT 1300C] ({CH2CO}-Y[NMeA]NP[Dap]L[Hyp]WS[Bta][NMeNle][NMeNle]RCGG[Aha]-NH2; thioether N-14), the pIC50 is 8.00 to 9.52.

In the case of `C#CC[C@H](NC(=O)CNC(=O)[C@@H]1CSCC(=O)N[C@@H](Cc2ccc(O)cc2)C(=O)N(C)[C@@H](C)C(=O)N[C@@H](CC(N)=O)C(=O)N2CCC[C@H]2C(=O)N[C@@H](CN)C(=O)N[C@@H](CC(C)C)C(=O)N2C[C@H](O)C[C@H]2C(=O)N[C@@H](Cc2c[nH]c3ccccc23)C(=O)N[C@@H](CCN)C(=O)N[C@@H](Cc2cn(CC(=O)O)c3ccccc23)C(=O)N(C)[C@@H](CCCC)C(=O)N(C)[C@@H](CCCC)C(=O)N[C@@H](CC(C)C)C(=O)N1)C(=O)O` [INT 1300V] ({CH2CO}-Y[NMeA]NP[Dap]L[Hyp]W[Dab][Trp(1-CH2COOH)][NMeNle][NMeNle]LCG[Pra]-OH; thioether N-14), the negative-log IC50 (pIC50) is 7.00 to 8.00. For the molecule `C#CC[C@H](NC(=O)CNC(=O)[C@@H]1CSCC(=O)N[C@@H](Cc2ccc(O)cc2)C(=O)N(C)[C@@H](C)C(=O)N[C@@H](CC(N)=O)C(=O)N2CCC[C@H]2C(=O)N[C@@H](CN)C(=O)N[C@@H](CC(C)C)C(=O)N2C[C@H](O)C[C@H]2C(=O)N[C@@H](Cc2c[nH]c3ccccc23)C(=O)N[C@@H](CCN)C(=O)N[C@@H](Cc2cn(CC(=O)O)c3ccccc23)C(=O)N(C)[C@@H](CCCC)C(=O)N(C)[C@@H](CCCC)C(=O)N[C@@H](CC(C)C)C(=O)N1)C(N)=O` [INT 1300W] ({CH2CO}-Y[NMeA]NP[Dap]L[Hyp]W[Dab][Trp(1-CH2COOH)][NMeNle][NMeNle]LCG[Pra]-NH2; thioether N-14), the pIC50 was 7.00 to 8.00. In the case of `C#CC[C@H](NC(=O)CNC(=O)[C@@H]1CSCC(=O)N[C@@H](Cc2ccc(O)cc2)C(=O)N(C)[C@@H](C)C(=O)N[C@@H](CC(N)=O)C(=O)N2CCC[C@H]2C(=O)N[C@@H](CN)C(=O)N[C@@H](CC(C)C)C(=O)N2C[C@H](O)C[C@H]2C(=O)N[C@@H](Cc2c[nH]c3ccccc23)C(=O)N[C@@H](CO)C(=O)N[C@@H](Cc2cn(CC(=O)O)c3ccccc23)C(=O)N(C)[C@@H](CCCC)C(=O)N(C)[C@@H](CCCC)C(=O)N[C@@H](CC(C)C)C(=O)N1)C(N)=O` [INT 1300X] ({CH2CO}-Y[NMeA]NP[Dap]L[Hyp]WS[Trp(1-CH2COOH)][NMeNle][NMeNle]LCG[Pra]-NH2; thioether N-14) it was 7.00 to 8.00. In the case of `C#CC[C@H](NC(=O)CNC(=O)[C@@H]1CSCC(=O)N[C@@H](Cc2ccc(O)cc2)C(=O)N(C)[C@@H](C)C(=O)N[C@@H](CC(=O)O)C(=O)N2CCC[C@H]2C(=O)N[C@@H](Cc2c[nH]cn2)C(=O)N[C@@H](CCCCN)C(=O)N2C[C@H](O)C[C@H]2C(=O)N[C@@H](Cc2c[nH]c3ccccc23)C(=O)N[C@@H](CCCCN)C(=O)N[C@@H](Cc2cn(CC(=O)O)c3ccccc23)C(=O)N(C)[C@@H](CCCC)C(=O)N(C)[C@@H](CCCC)C(=O)N[C@@H](CCC(=O)O)C(=O)N1)C(=O)O` [INT 1300Y] ({CH2CO}-Y[NMeA]DPHK[Hyp]WK[Trp(1-CH2COOH)][NMeNle][NMeNle]ECG[Pra]-OH; thioether N-14) it was 8.00 to 9.52; in that of `C#CC[C@H](NC(=O)CNC(=O)[C@@H]1CSCC(=O)N[C@@H](Cc2ccc(O)cc2)C(=O)N(C)[C@@H](C)C(=O)N[C@@H](CC(=O)O)C(=O)N2CCC[C@H]2C(=O)N[C@@H](Cc2c[nH]cn2)C(=O)N[C@@H](CCCCN)C(=O)N2C[C@H](O)C[C@H]2C(=O)N[C@@H](Cc2c[nH]c3ccccc23)C(=O)N[C@@H](CCCCN)C(=O)N[C@@H](Cc2c[nH]c3ccccc23)C(=O)N(C)[C@@H](CCCC)C(=O)N(C)[C@@H](CCCC)C(=O)N[C@@H](CCC(=O)O)C(=O)N1)C(=O)NCC(N)=O` [INT 1400A] ({CH2CO}-Y[NMeA]DPHK[Hyp]WKW[NMeNle][NMeNle]ECG[Pra]G-NH2; thioether N-14), 8.00 to 9.52; in that of `C#CC[C@H](NC(=O)CNC(=O)[C@@H]1CSCC(=O)N[C@@H](Cc2ccc(O)cc2)C(=O)N(C)[C@@H](C)C(=O)N[C@@H](CC(=O)O)C(=O)N2CCC[C@H]2C(=O)N[C@@H](Cc2c[nH]cn2)C(=O)N[C@@H](CCCCN)C(=O)N2C[C@H](O)C[C@H]2C(=O)N[C@@H](Cc2c[nH]c3ccccc23)C(=O)N[C@@H](CCCCN)C(=O)N[C@@H](Cc2c[nH]c3ccccc23)C(=O)N(C)[C@@H](CCCC)C(=O)N(C)[C@@H](CCCC)C(=O)N[C@@H](CCC(=O)O)C(=O)N1)C(=O)N[C@@H](CC(=O)O)C(N)=O` [INT 1400B] ({CH2CO}-Y[NMeA]DPHK[Hyp]WKW[NMeNle][NMeNle]ECG[Pra]D-NH2; thioether N-14), 8.00 to 9.52.

For `C#CC[C@H](NC(=O)CNC(=O)[C@@H]1CSCC(=O)N[C@@H](Cc2ccc(O)cc2)C(=O)N(C)[C@@H](C)C(=O)N[C@@H](CC(=O)O)C(=O)N2CCC[C@H]2C(=O)N[C@@H](Cc2c[nH]cn2)C(=O)N[C@@H](CCC(N)=O)C(=O)N2C[C@H](O)C[C@H]2C(=O)N[C@@H](Cc2c[nH]c3ccccc23)C(=O)N[C@@H](CO)C(=O)N[C@@H](Cc2c[nH]c3ccccc23)C(=O)N(C)[C@@H](CCCC)C(=O)N(C)[C@@H](CCCC)C(=O)N[C@@H](CCC(=O)O)C(=O)N1)C(=O)NCC(N)=O` [INT 1400C] ({CH2CO}-Y[NMeA]DPHQ[Hyp]WSW[NMeNle][NMeNle]ECG[Pra]G-NH2; thioether N-14), the negative-log IC50 (pIC50) is 8.00 to 9.52.
